Entries after “also recorded” stand apart in the source; their conditions may differ.
Columns and labels:
fibroblast cells = assay: cytotoxic effect of FC on fibroblast cell viability, long-term culture; format: cell-based; conditions: 100 μM FC, vs untreated control
Procedure: It was observed much less living cells and after 5 weeks they are clearly death (FIG. 2A).
(§1) HeLa and fibroblast cells are routinely maintained in this laboratory. Fibroblast cells were grown in Optimem medium supplemented with 10% fetal calf serum and antibiotics, HeLa cells were grown in RPMI 1640 supplemented with 10% fetal calf serum and antibiotics (penicillin 100 U/ml and streptomycin 100 ug/ml). All cell lines were incubated in a humidified atmosphere with 5% CO2 in air at 37° C.
There 1×10^6 cells on 6-well plates were used to study the cytotoxicity area of FC on cell growth in the presence or absence of FC.

GAPDH [1] = assay: RT/PCR analysis of GAPDH gene expression in fibroblast cells; format: cell-based; conditions: fibroblast cells cultured 5 weeks with 100 μM FC; phosphoimager analysis
Procedure: To confirm this observation total RNA was isolated and RT/PCR was perform to analyzed total GAPDH gene expression as a result of condition of cells survival (FIG. 2B) The phosphoimager analysis was performed to determined differences in GAPDH expression in fibroblast cells. We observed that it is 72% lower in FC treated cells in comparison to the control (FIG. 2C).
(§2) Total RNA from cells was isolated using TRIZOL reagent (Invitrogen). Samples for analyses of gene expression were prepared from cultured Hela and fibroblast cells Aliquots (1×10^6 cells) were removed and homogenized in TRIZOL reagent (Invitrogen). Total RNA was then chloroform extracted and precipitated using iso-propanol and ethanol. Reverse transcription was carried out using: 2 μg RNA, random primer and RevertAid™ H Minus M-MuLV reverse transcriptase (Fermentas) according to the manufactures instructions. The resultant cDNA was amplified with primers complementary to the glyceraldehyde-3-phosphate dehydrogenase, GAPDH (G1: GGGTGGAGCCAAACGGGTC, G2: […]) PCR reaction was initiated with denaturation at 94° C. for 2 min, annealing at 55° C. for 1 min, extension at 72° C. for 30 sec, followed by 30 cycles. Equal volumes of amplified products were electrophoresed on 1 agarose gel and stained with ethidium bromide.
Differences in expression level were determined using Phosphoimager and ImageQant program.

[2] = solubility observed during purification; format: physicochemical
Procedure: The second step was the reaction of furfurylamine (FIG. 1 V) with 4-N-p-toluenesulfonyl-2′-deoxycytidine (FIG. 1 I). The third step was depended on creating of 4-N-furfurylcytosine (FIG. 1 III), by cleavage of N-glycosyl bond by solution of inorganic acid in water (pH of this solution was about 3).
In this reason, purify on the column was performed in warm water (40-45° C.). The column was referred by aluminium foil, because the decrease temperature of water was carried out to precipitate of the product on the gel. The purification of the product was performed two times, because acid degradation of ribose gave a lot of byproducts, obstructed purification. The main product was eluted in 0.1% warm water solution of methanol. When the temperature of solvent was higher than 45° C., the product could elute earlier. The 4-N-furfurylcytosine was crystallized in water, gave colorless crystals, which form thin needles.

GAPDH [3] = assay: RT-PCR analysis of GAPDH gene expression in HeLa cells (internal control); format: cell-based; conditions: 100 μM FC, 24 hours, vs untreated control
Procedure: In other test, we have analyzed influence of FC on the specific gene expression. In this case it was DNMT-1. Effect of FC on DNMT-1 expression was check in HeLa cells after 24 hours (FIG. 3A).
as §1
as §2, with “Equal volumes of amplified products were electrophoresed on 1 agarose gel and stained with ethidium bromide.” left out

O=c1nc(NCc2ccco2)cc[nH]1 [FC, 4-N-furfurylcytosine]
fibroblast cell viability (fibroblast cells; after 3 weeks of culture): decreases in cell viability
fibroblast cell viability / cytotoxic effect (fibroblast cells; after 5 weeks of culture): clearly death; also recorded: cytotoxic effect
GAPDH expression lower in FC treated cells in comparison to the control (GAPDH [1]): 72%
solubility in solvents ([2]; all solvents): low solubility
solubility in water ([2]; water, increases with temperature): best solubility
GAPDH expression level (GAPDH [3]): stable and similar
